Results on two compounds are retold here after patent US8552064B2, “Suramin and derivatives thereof as topical microbicide and contraceptive” (Eastern Virginia Medical School, priority 2005, dated 2013).

The test system of one experiment is sperm. The experiment is described as follows: Sperm progressive motility dose-response and time studies, CASA. In kind it is cell-based, human. The note with it: 1-10,000 μg/mL or 5-0.07 mM.
Experiment [1] deals with sperm penetration in cervical mucus. Put plainly: Modified One End Test (MOET), sperm penetration in bovine cervical mucus. It is filed as cell-based. The source says: Bovine cervical mucus was obtained from Humagen (Charlottesville, Va.) in the form of prepackaged flat capillary tubes (Penetrak®), kept frozen and thawed right prior to the experiment. The Modified One End Test (MOET) [(described in Doncel G. F., in “Barrier Contraceptives”, Wiley-Liss, Mauck C. K. et al. eds., pp. 147-162 (1994)] was used to determine the effect of compounds, such as suramin sodium described herein, on sperm penetration in cervical mucus. Each of the test compositions containing the compound to be tested were diluted in a saline solution, i.e., at 9 grams of NaCl per liter of water. Tubes of cervical mucus were broken open. The open end was placed in a container containing the test compound in saline. The test compound was allowed to diffuse for 30 minutes through the tube. A semen sample, obtained from normal healthy donors, was then diluted with a buffer solution to 60 million motile sperm per milliliter and mixed with the test compound sample (i.e., suramin sodium). The tube containing the test compound sample was then re-inserted into the container containing the mixed solution and stored in an incubator at 37° C. in an atmosphere of 5 percent carbon dioxide in air for 60 minutes. The container and tube were then removed from the incubator and the tube was visually analyzed under a microscope for the migration of motile vanguard sperm through the tube. The results are expressed as percentage of migration as compared to control samples. In the control samples, the tubes were incubated with saline containing no compound. […]

With `CCCCCCCCCc1ccc(OCCOCCOCCOCCOCCOCCOCCOCCOCCO)cc1` [N-9, α-(4-Nonylphenyl)-ω-hydroxynona(oxyethylene)], in the experiment with sperm, the “sperm progressive motility and membrane integrity vs solvent control” value is recorded as “displayed its known sperm-immobilizing effects”. For the same compound, the “MOET % CTL” value in experiment [1] (30 ug/ml) worked out at 48.6 ± 6.9 % CTL; in experiment [1] (300 ug/ml), 0.7 ± 0.5 % CTL. Besides, the “blocking of sperm penetration” value in experiment [1] (300 μg/mL (0.03%)) was “completely blocked sperm penetration”.
As for Dextran Sulfate, the “MOET % CTL” value is 93.7 ± 1.7 % CTL in experiment [1] (6.25 mg/ml), 82.4 ± 5.2 % CTL in experiment [1] (12.5 mg/ml), 86.8 ± 4.4 % CTL in experiment [1] (25 mg/ml) and 56.6 ± 8.9 % CTL in experiment [1] (50 mg/ml). Moreover, the “inhibition of sperm penetration in MOET” value in experiment [1] (50 mg/mL (5%)) is reported as “more inhibition than suramin sodium”.
